From publication PMC4993479 (PLoS ONE, 2016)
Like-named read-outs stand apart in the source and are kept apart here.

Key:
[1] = In vitro skin diffusion across human epidermis in Franz-type diffusion cells; format: in vitro ADME
Description: Full thickness human skin samples from patients (26–48 years old females) undergoing abdominoplasty at Perth (WA, Australia) hospitals were refrigerated immediately after surgery. Sampling was approved by the Human Research Ethics Committee of Curtin University and was conducted in compliance with the guidelines of the National Health and Medical Research Council of Australia. Epidermal sheets were obtained and stored as previously described. […] Two hundred μL samples of the receptor phase were withdrawn and replaced with an equal volume of fresh pre-warmed (37°C) 25:75 PG:PBS over an 8 h period and the content analysed by HPLC. […] Permeability coefficients (cm/h) were calculated.

[2] = Uptake/retention in the epidermis by solvent extraction and HPLC after the permeation experiment; conditions: human epidermis
Description: Briefly, the skin sections were placed in 500 μL methanol and vortexed for 2 min, then transferred to a second 500 μL methanol volume and vortexed for another 2 min. The skin sample was then placed in 1 mL propylene glycol for 1 h with agitation. After centrifuging each extract at 10,000 × g for 10 min, the resultant supernatants were diluted appropriately, quantified by HPLC, and the data combined to give total penetrant in the epidermal section.
Mass balance/recovery after the skin permeation experiments was determined by removing and retaining the donor solution, and washing the epidermal surface, donor and receptor compartments and retaining all washing solutions. The content of all solutions was analysed by HPLC following suitable dilution.

COX-2 = target: T1, COX-2 (Homo sapiens, UniProt P35354); test: COX Fluorescent Inhibitor Screening Assay (COX-2 inhibition); format: biochemical; conditions: concentration range 0.000155–0.31 mM, 2 min incubation
T1 construct: purchased Cayman Chemical 700100
T1 sequence (P35354 18-604): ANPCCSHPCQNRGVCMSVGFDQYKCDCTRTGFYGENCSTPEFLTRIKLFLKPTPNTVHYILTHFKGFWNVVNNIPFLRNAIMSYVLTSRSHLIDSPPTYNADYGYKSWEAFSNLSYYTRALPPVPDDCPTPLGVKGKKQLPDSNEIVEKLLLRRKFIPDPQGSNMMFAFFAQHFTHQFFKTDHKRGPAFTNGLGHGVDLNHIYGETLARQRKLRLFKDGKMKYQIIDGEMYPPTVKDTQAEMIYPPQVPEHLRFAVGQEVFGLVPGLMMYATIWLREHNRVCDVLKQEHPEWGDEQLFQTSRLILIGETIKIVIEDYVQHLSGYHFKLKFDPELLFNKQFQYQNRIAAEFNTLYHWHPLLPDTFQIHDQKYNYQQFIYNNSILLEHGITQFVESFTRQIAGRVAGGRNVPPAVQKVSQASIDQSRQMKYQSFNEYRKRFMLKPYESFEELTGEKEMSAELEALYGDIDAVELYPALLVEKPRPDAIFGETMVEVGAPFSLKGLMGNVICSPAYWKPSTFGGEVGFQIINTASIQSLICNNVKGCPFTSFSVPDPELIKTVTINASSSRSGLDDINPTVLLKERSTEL

## CN1C(=O)[C@H](Cc2ccc(NC(=O)Cc3ccccc3Nc3c(Cl)cccc3Cl)cc2)NC(=O)[C@@H]1Cc1ccc2ccccc2c1 [DKP-diclofenac conjugate, DKP Phe(Diclofenac)-N-MeNal]
[1]
  Amount permeated (% of applied dose): 4.00 % of applied dose
  Maximum amount permeated: 6.01(±0.16) μg/cm^2

## O=C(O)Cc1ccccc1Nc1c(Cl)cccc1Cl [Diclofenac, Diclofenac sodium]
[1]; human epidermis, 300 μL containing 150 μg diclofenac alone or as conjugate in 25:75 PG:PBS, 8 h
  steady state flux: 0.12 μg/cm^2/h
[1]; human epidermis, applied dose 150 μg in 300 μL 25:75 PG:PBS, 8 h
  Maximum amount permeated: 0.91(±0.15) μg/cm^2
[1]; human epidermis, applied dose 150 μg, 8 h
  Amount permeated (% of applied dose): 0.60 % of applied dose
[2]; applied dose 150 μg
  Amount extracted from the skin (% of applied dose): 5.72 % of applied dose
[2]; applied dose 150 μg in 25:75 PG:PBS, after 8 h permeation experiment
  Amount extracted (skin distribution): 8.58(±1.50) μg

## DKP Phe-N-MeNal
[1]
  Amount permeated (% of applied dose): 4.33 % of applied dose
  Maximum amount permeated: 6.50(±1.94) μg/cm^2
COX-2
  COX-2 inhibition (in words): did not demonstrate COX-2 inhibition
